Test results taken from the supplement of paper PMC11616607.

How the values were obtained:
Assay in all cases: drug sensitivity score (DSS) from 5-point dose-response viability curve (DSS (area-under-curve based score)); higher = more sensitive (stronger growth inhibition or killing); extreme values may be limits of the assay
Conditions in all cases: exposure time: 72 h; concentration range: 5 concentrations over 10,000-fold range
[1] = tested on: COV318
Summary of the method: (§1)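 Ovarian cancer and normal ovarian cell lines were tested in 384-well plates. Drugs were acoustically dispensed (Echo 550) in DMSO or water at five concentrations spanning a 10,000-fold range, then 1,500 cells per well were added and incubated 3 days at 37°C, 5% CO2. Viability was read by CellTiter-Glo luminescence on a PHERAstar FS. Drug sensitivity score was derived per cell line and drug with Breeze software; higher means more sensitive, zero means no response.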

[2] = tested on: Ovsaho
Summary of the method: as §1

[3] = tested on: JHOS2
Summary of the method: as §1

[4] = tested on: HOSE2C
Summary of the method: as §1

[5] = tested on: OVCAR4
Summary of the method: as §1

[6] = tested on: COV362
Summary of the method: as §1

[7] = tested on: CAOV3
Summary of the method: as §1

[8] = tested on: OV90
Summary of the method: as §1

[9] = tested on: OVCAR5
Summary of the method: as §1

[10] = tested on: Kuramochi
Summary of the method: as §1

[11] = tested on: HOSE1C
Summary of the method: as §1

[12] = tested on: OVCAR8
Summary of the method: as §1

Compound	drug sensitivity score [1]	drug sensitivity score [2]	drug sensitivity score [3]	drug sensitivity score [4]	drug sensitivity score [5]	drug sensitivity score [6]	drug sensitivity score [7]	drug sensitivity score [8]	drug sensitivity score [9]	drug sensitivity score [10]	drug sensitivity score [11]	drug sensitivity score [12]
CC(=O)c1cnc2ccc(-c3cc(Cl)c(O)c(Cl)c3)nc2c1N[C@H]1CC[C@H](CN(C)C)CC1 [OTS167]	15.1	9.1	13.4	12.4	7.5	5.4	13.2	7.5	11.8	10.6	19.8	13.6
O=C(c1cc(Cc2n[nH]c(=O)c3ccccc23)ccc1F)N1CCN(C(=O)C2CC2)CC1 [Olaparib]	2.9	2.1	4.6	2.5	1.9	0.3	4.7	5.4	2	3.4	0.8	4.9
C=CC(=O)Nc1cccc(Oc2nc(Nc3ccc(N4CCN(C)CC4)cc3)nc3ccsc23)c1 [Olmutinib]	0.3	0.5	0	0	0.1	0.6	0.3	0	0.7	0.7	0	0
COC(=O)C[C@](O)(CCCC(C)(C)O)C(=O)O[C@@H]1C(OC)=C[C@]23CCCN2CCc2cc4c(cc2[C@H]13)OCO4 [Omacetaxine]	17.4	19.5	19.3	18.6	20.9	19.2	28.7	23.3	23.4	18.3	31	24.1
CC1(C)CC[C@]2(NC(=O)C(C)(F)F)CC[C@]3(C)[C@H](C(=O)C=C4[C@@]5(C)C=C(C#N)C(=O)C(C)(C)[C@@H]5CC[C@]43C)[C@@H]2C1 [Omaveloxolone]	10.5	19.6	13.3	16.3	18.6	9.2	17.4	18.8	13.7	14.3	16.5	18.9
COc1ncc(-c2ccc3nccc(-c4ccnnc4)c3c2)cc1NS(=O)(=O)c1ccc(F)cc1F [Omipalisib]	10.7	10.4	10.1	18.1	12.7	6.7	16.9	8.6	18.9	16.2	16.6	13.3
CC(C)c1cc(C(=O)N2Cc3ccc(CN4CCN(C)CC4)cc3C2)c(O)cc1O [Onalespib]	5	3.1	12.8	11.7	6.7	7.7	11.6	14.6	10.6	6.6	9.2	16.4
COC[C@H](NC(=O)c1cnc(C)s1)C(=O)N[C@@H](COC)C(=O)N[C@@H](Cc1ccccc1)C(=O)[C@@]1(C)CO1 [Oprozomib]	24.5	16.1	23.9	17.1	15.2	15.1	21.7	21.4	15.4	9.6	18.8	12.6
CNC(=O)c1ccc2cc([C@@]3(O)CCn4cncc43)ccc2c1 [Orteronel]	0	0	0	0	0	0	0	0	0	0	0	0
C=CC(=O)Nc1cc(Nc2nccc(-c3cn(C)c4ccccc34)n2)c(OC)cc1N(C)CCN(C)C [Osimertinib]	1.3	5.5	1.6	0.9	1.7	2.2	5.4	1.4	5.3	3.9	4.7	3.7
O=C(O)C(=O)O.[NH-][C@@H]1CCCC[C@H]1[NH-].[Pt+2] [Oxaliplatin]	5	9	7.8	6	8.5	0.2	11.8	6.9	11.4	6.8	10.7	6.8
C=CCc1cccc(/C=N/NC(=O)CN2CCN(Cc3ccccc3)CC2)c1O [PAC-1]	0.2	4	0.7	2.7	3	0.4	3.2	2.6	1.7	2.1	3.1	4
O=C(Nc1cccnc1)N1CCC(Cc2cccc(Oc3ccc(C(F)(F)F)cn3)c2)CC1 [PF-3845]	0	0	0	0	0.3	0	1.6	2	1	0	0	6.5
COc1ccccc1S(=O)(=O)Nc1ccc2c(c1)CN(C)C(=O)N2 [PFI-1]	3.1	8.2	2.6	4.3	4.4	3	7.2	5.5	5.7	8.7	3.1	4.8
CN1CCN(c2cc(C(=O)Nc3ccc4c(c3)-c3c(c(C(N)=O)nn3-c3ccc(F)cc3)CC4)c(Cl)cn2)CC1 [PHA 408]	0.7	6.2	6.1	4.8	4.3	0.6	6	0.1	0.5	1.8	6.5	2.4
O=C(Nc1cc(Cl)cc2c1[nH]c1cnccc12)c1cccnc1 [PS-1145]	0	0	0	0	0.3	0	0	1	1.6	0.6	0	0
COc1cc(Br)c(Nc2nc(-c3c(C)nc4ncccn34)cs2)c(Br)c1 [PTC-209]	2.1	1.3	6.2	9.6	3.1	0.6	4.1	9.8	3.5	2.7	8.1	4.5
CC(=O)O[C@H]1C(=O)[C@@]2(C)[C@H]([C@H](OC(=O)c3ccccc3)[C@]3(O)C[C@H](OC(=O)[C@H](O)[C@@H](NC(=O)c4ccccc4)c4ccccc4)C(C)=C1C3(C)C)[C@]1(OC(C)=O)CO[C@@H]1C[C@@H]2O [Paclitaxel]	5.7	11.8	14.4	25	7.8	8.9	25.9	14.9	21.4	13.8	25.1	27.6
C1=N/C2=N/c3ccc(OCCN4CCCC4)c(c3)COC/C=C/COCc3cccc(c3)C(=C1)N2 [Pacritinib]	5.3	8	7.5	8.2	6.8	6.2	7.6	10.5	9.4	6.5	8.2	7.8
CC(=O)c1c(C)c2cnc(Nc3ccc(N4CCNCC4)cn3)nc2n(C2CCCC2)c1=O [Palbociclib]	3.2	3	6.3	2.9	0.1	1	0.1	0.8	3.6	1.4	4.5	0.5
COc1ccc(COc2cc3oc(=O)c4cc(C(C)O)ccc4c3cc2OC)cc1 (stereo not given) [Palomid-529]	1.2	0.1	0	0	0.6	0	0	0.8	0	0.1	0	0
Cc1[nH]c2ccccc2c1CCNCc1ccc(/C=C/C(=O)NO)cc1 [Panobinostat]	10.6	10.8	13.1	21.1	13.5	5.8	14.5	18.2	23.3	15.3	24.1	21.4
Cc1ccc(Nc2nccc(N(C)c3ccc4c(C)n(C)nc4c3)n2)cc1S(N)(=O)=O [Pazopanib]	0.1	0	0	0	0	0	0	0	0	0	0	0
Nc1nc2[nH]cc(CCc3ccc(C(=O)N[C@@H](CCC(=O)O)C(=O)O)cc3)c2c(=O)[nH]1 [Pemetrexed]	0	6.1	0	20.4	4.2	12.7	14.1	3.7	7.6	5.8	22.9	18.2
OC[C@H]1O[C@@H](n2cnc3c2N=CNC[C@H]3O)C[C@@H]1O [Pentostatin]	0	0	0	1.5	0	0	0	0	0	0	0	0
CCCCCCCCCCCCCCCCCCOP(=O)([O-])OC1CC[N+](C)(C)CC1 [Perifosine]	0	0	0	0	0	0	0	0	0	0	0	0
NS(=O)(=O)OC[C@@H]1C[C@@H](n2ccc3c(N[C@H]4CCc5ccccc54)ncnc32)C[C@@H]1O [Pevonedistat]	3.5	6.1	15	22.6	2.6	8.7	25.6	16.2	6.3	7.8	17.2	16.3
FC(F)(F)c1ccc(CNc2ccc(Cc3c[nH]c4ncc(Cl)cc34)cn2)cn1 [Pexidartinib]	0.7	0.1	5	0	1.3	0	0.8	0.7	2.3	0.6	0	1.8
CS(=O)(=O)N1CCN(Cc2cc3nc(-c4cccc5[nH]ncc45)nc(N4CCOCC4)c3s2)CC1 [Pictilisib]	5.3	9.5	3.8	8.2	5.3	5.9	9.8	6.2	12.1	10.6	6.8	8.3
CC[C@@H]1C(=O)OC[C@@H]1Cc1cncn1C [Pilocarpine]	0	0	0.5	0	0	0	0	0	0	0	0	0
